The source of these data is patent US20050267156A1, “Broadspectrum 2-amino-benzothiazole sulfonamide hiv protease inhibitors” (Tibotec Pharmaceuticals Ltd., priority 2002, published 2005).

Counter-ions that a name gives are not always drawn. Like-named read-outs stand apart in the source and are kept apart here. A value given as a limit tells only on which side of the number the result lay.

Holding throughout (assay type): cell-based
A short description of data set [1]: Toxicity on mock-infected cells (MTT). The conditions noted are these: human. The protocol:
(§1) HIV- or mock-infected MT4 cells were incubated for five days in the presence of various concentrations of the inhibitor. At the end of the incubation period, the replicating virus in the control cultures has killed all HIV-infected cells in the absence of any inhibitor. Cell viability is measured by measuring the concentration of MTT, a yellow, water soluble tetrazolium dye that is converted to a purple, water insoluble formazan in the mitochondria of living cells only. Upon solubilization of the resulting formazan crystals with isopropanol, the absorbance of the solution is monitored at 540 nm. The values correlate directly to the number of living cells remaining in the culture at the completion of the five-day incubation. The inhibitory activity of the compound was monitored on the virus-infected cells and was expressed as EC50 and EC90. These values represent the amount of the compound required to protect 50% and 90%, respectively, of the cells from the cytopathogenic effect of the virus. […] The selectivity index (SI) (ratio CC50/EC50) is an indication of the selectivity of the anti-HIV activity of the inhibitor. Wherever results are reported as e.g. pEC50 or pCC50 values, the result is expressed as the negative logarithm of the result expressed as EC50 or CC50 respectively.

The test system of a further data set is HIV-1 strain LAI. Kind of data set: Cellular anti-HIV assay (MT4/MTT), wild type. The conditions noted are these: MT4 cells, read-out: WT (pEC50) (converted). The protocol: as §1, with “The compounds of the present invention were examined for anti-viral activity in a cellular assay. […] The cellular assay was performed according to the following procedure. HIV-” for “HIV-”, “At the end of the incubation period, the replicating virus in the control cultures has killed all HIV-infected cells in the absence of any inhibitor.” left out

Another data set concerns mutant HIV strain B. Kind of data set: microbe, parasite or virus in culture. Particulars: for fold resistance Strain B: FR=EC50 (mutant strain)/EC50 (HIV-1 strain LAI); for EC50: Human immunodeficiency virus 1, MT4, read-out: pEC50 Strain B, mutant HIV strain B, MT4 cells (converted). How it is done:
as §1, with “At the end of the incubation period, the replicating virus in the control cultures has killed all HIV-infected cells in the absence of any inhibitor.” left out

The subject of another data set is mutant HIV strain E. The data set is described as follows: microbe, parasite or virus in culture. The conditions noted are these: for fold resistance Strain E: FR=EC50 (mutant strain)/EC50 (HIV-1 strain LAI); for EC50: Human immunodeficiency virus 1, MT4, read-out: pEC50 Strain E, mutant HIV strain E, MT4 cells (converted). The protocol:
as §1, with “At the end of the incubation period, the replicating virus in the control cultures has killed all HIV-infected cells in the absence of any inhibitor.” left out

The next data set deals with mutant HIV strain C. The data set is described as follows: microbe, parasite or virus in culture. Particulars: for fold resistance Strain C: FR=EC50 (mutant strain)/EC50 (HIV-1 strain LAI); for EC50: Human immunodeficiency virus 1, MT4, read-out: pEC50 Strain C, mutant HIV strain C, MT4 cells (converted). How it is done: as §1, with “At the end of the incubation period, the replicating virus in the control cultures has killed all HIV-infected cells in the absence of any inhibitor.” left out

Another data set relates to mutant HIV strain F. The data set is described as follows: microbe, parasite or virus in culture. Particulars: for fold resistance Strain F: FR=EC50 (mutant strain)/EC50 (HIV-1 strain LAI); for EC50: Human immunodeficiency virus 1, MT4, read-out: pEC50 Strain F, mutant HIV strain F, MT4 cells (converted). The protocol:
as §1, with “At the end of the incubation period, the replicating virus in the control cultures has killed all HIV-infected cells in the absence of any inhibitor.” left out

In the next data set the test system is mutant HIV strain D. The data set is described as follows: microbe, parasite or virus in culture. Particulars: for fold resistance Strain D: FR=EC50 (mutant strain)/EC50 (HIV-1 strain LAI); for EC50: Human immunodeficiency virus 1, MT4, read-out: pEC50 Strain D, mutant HIV strain D, MT4 cells (converted). The protocol:
as §1, with “At the end of the incubation period, the replicating virus in the control cultures has killed all HIV-infected cells in the absence of any inhibitor.” left out

Another data set relates to mutant HIV strain A. Kind of data set: microbe, parasite or virus in culture. Particulars: for fold resistance Strain A: FR=EC50 (mutant strain)/EC50 (HIV-1 strain LAI); for EC50: Human immunodeficiency virus 1, MT4, read-out: pEC50 Strain A, mutant HIV strain A, MT4 cells (converted). How it is done:
as §1, with “At the end of the incubation period, the replicating virus in the control cultures has killed all HIV-infected cells in the absence of any inhibitor.” left out

[2] abbreviates: Human immunodeficiency virus 1, wild type HIV-1 strain LAI.

Consider `Cc1c(N)cccc1C(=O)N[C@@H](Cc1ccccc1)[C@H](O)CN(CC(C)C)S(=O)(=O)c1ccc2nc(N)sc2c1` [Compound 10, 3-amino-N-{(1S,2R)-3-[(2-amino-benzothiazole-6-sulfonyl)-isobutyl-amino]-1-benzyl-2-hydroxypropyl}-2-methyl-benzamide], for which the CC50 at 5 days in data set [1] is 72400 nM. For the same compound, the EC50 in the data set on HIV-1 strain LAI (setting [2]) is 9.12 nM; in the data set with mutant HIV strain B, 9.33 nM; with mutant HIV strain E, 13.2 nM; in the data set on mutant HIV strain C, 15.8 nM; in the data set with mutant HIV strain F it was 87.1 nM; with mutant HIV strain D, 22.9 nM. In addition, in the data set on mutant HIV strain A, the EC50 is 85.1 nM. Moreover, the “fold resistance Strain B” value in the data set with mutant HIV strain B was found to be 1.0. In addition, the “fold resistance Strain E” value in the data set with mutant HIV strain E is on record as 1.4. The “fold resistance Strain C” value in the data set with mutant HIV strain C was found to be 1.7. Also, the “fold resistance Strain F” value in the data set with mutant HIV strain F turned out to be 9.5. In the data set with mutant HIV strain D, the “fold resistance Strain D” value was 2.5. Besides, the “fold resistance Strain A” value in the data set with mutant HIV strain A worked out at 9.3.

`Cc1c(O)cccc1C(=O)N[C@@H](Cc1ccccc1)[C@H](O)CN(CC(C)C)S(=O)(=O)c1ccc2nc(N)sc2c1` [Compound 11, N-{(1S,2R)-3-[(2-amino-benzothiazole-6-sulfonyl)-isobutyl-amino]-1-benzyl-2-hydroxypropyl}-3-hydroxy-2-methyl-benzamide]: the CC50 at 5 days in data set [1] is 57500 nM. For the same compound, the EC50 in the data set on HIV-1 strain LAI (setting [2]) is 14.5 nM. Besides, in the data set on mutant HIV strain B, the “fold resistance Strain B” value is on record as 0.5 and the EC50 is 7.24 nM. Also, in the data set with mutant HIV strain E, the “fold resistance Strain E” value stood at 0.5 and the EC50 is 7.24 nM. Besides, in the data set with mutant HIV strain C, the “fold resistance Strain C” value was found to be 0.5 and the EC50 was 7.59 nM. In addition, in the data set on mutant HIV strain F, the “fold resistance Strain F” value is recorded as 7.1 and the EC50 was 102 nM. Further, in the data set on mutant HIV strain D, the “fold resistance Strain D” value was 0.6 and the EC50 is 8.32 nM. In the data set with mutant HIV strain A, the “fold resistance Strain A” value is listed as 7.8 and the EC50 is 112 nM.

As for `CNc1nc2ccc(S(=O)(=O)N(CC(C)C)C[C@@H](O)[C@H](Cc3ccccc3)NC(=O)c3cccc(N)c3C)cc2s1` [Compound 20, 3-amino-N-{(1S,2R)-1-benzyl-2-hydroxy-3-[isobutyl-(2-methylamino-benzothiazole-6-sulfonyl)-amino]-propyl}-2-methyl-benzamide trifluoroacetate], the CC50 at 5 days in data set [1] was above 100000 nM. The EC50 is 4.79 nM with HIV-1 strain LAI (Human immunodeficiency virus 1, MT4, wild type HIV-1 strain LAI); 24.5 nM in the data set on mutant HIV strain B; 25.7 nM in the data set on mutant HIV strain E; 39.8 nM in the data set on mutant HIV strain C; 759 nM in the data set with mutant HIV strain F; 41.7 nM in the data set with mutant HIV strain D. In addition, in the data set with mutant HIV strain A, the EC50 was 316 nM.

In turn, `Cc1cccc(C)c1OCC(=O)N[C@@H](Cc1ccccc1)[C@H](O)CN(CC(C)C)S(=O)(=O)c1ccc2nc(N)sc2c1` [Compound 8, N-{(1S,2R)-3-[(2-amino-benzothiazole-6-sulfonyl)-isobutyl-amino]-1-benzyl-2-hydroxypropyl}-2-(2,6-dimethyl-phenoxy)-acetamide] registered a CC50 at 5 days in data set [1] above 10000 nM. Moreover, in the data set on HIV-1 strain LAI (setting [2]), the EC50 was 6.61 nM. For the same compound, in the data set on mutant HIV strain B, the “fold resistance Strain B” value was 2.0 and the EC50 is 13.5 nM. Also, in the data set with mutant HIV strain E, the “fold resistance Strain E” value is on record as 4.2 and the EC50 is 27.5 nM. For the same compound, in the data set on mutant HIV strain C, the “fold resistance Strain C” value came to 3.9 and the EC50 is 25.7 nM. For the same compound, in the data set on mutant HIV strain F, the “fold resistance Strain F” value is recorded as 21.4 and the EC50 is 141 nM. Moreover, in the data set on mutant HIV strain D, the “fold resistance Strain D” value is 5.1 and the EC50 was 33.9 nM. In the data set with mutant HIV strain A, the “fold resistance Strain A” value worked out at 4.8 and the EC50 is 31.6 nM.

`CNc1nc2ccc(S(=O)(=O)N(CC(C)C)C[C@@H](O)[C@H](Cc3ccccc3)NC(=O)c3ccc(Br)cc3C)cc2s1` [Compound 27, N-{(1S,2R)-1-benzyl-2-hydroxy-3-[isobutyl-(2-methylamino-benzothiazole-6-sulfonyl)-amino]-propyl}-4-bromo-2-methyl-benzamide]: the CC50 at 5 days in data set [1] was above 100000 nM. The EC50 in the data set on HIV-1 strain LAI (setting [2]) was 19.1 nM. In addition, in the data set with mutant HIV strain B, the “fold resistance Strain B” value was 1.1 and the EC50 is 20.4 nM. In the data set on mutant HIV strain E, the “fold resistance Strain E” value is given as 1.6 and the EC50 was 30.9 nM. Besides, in the data set on mutant HIV strain C, the “fold resistance Strain C” value amounted to 263.0 and the EC50 is 5010 nM. For the same compound, in the data set with mutant HIV strain F, the “fold resistance Strain F” value is 33.9 and the EC50 is 646 nM. In addition, in the data set with mutant HIV strain D, the “fold resistance Strain D” value is listed as 4.5 and the EC50 is 85.1 nM. Moreover, in the data set with mutant HIV strain A, the “fold resistance Strain A” value turned out to be 8.3 and the EC50 was 158 nM.

In the case of `Cc1c(F)cccc1C(=O)N[C@@H](Cc1ccccc1)[C@H](O)CN(CC(C)C)S(=O)(=O)c1ccc2nc(N)sc2c1` [Compound 16, N-{(1S,2R)-3-[(2-amino-benzothiazole-6-sulfonyl)-isobutyl-amino]-1-benzyl-2-hydroxypropyl}-3-fluoro-2-methyl-benzamide], the CC50 at 5 days in data set [1] was 11200 nM. Further, the EC50 in the data set on HIV-1 strain LAI (setting [2]) is 1410 nM; with mutant HIV strain B, above 100000 nM; with mutant HIV strain E, above 100000 nM; in the data set on mutant HIV strain C, above 100000 nM; in the data set with mutant HIV strain F, above 100000 nM; in the data set on mutant HIV strain D it was above 100000 nM. Further, the EC50 in the data set on mutant HIV strain A is above 100000 nM.

In data set [1], `Cc1cc(CN)cc(C)c1OCC(=O)N[C@@H](Cc1ccccc1)[C@H](O)CN(CC(C)C)S(=O)(=O)c1ccc2nc(N)sc2c1` [Compound 17, N-{(1S,2R)-3-[(2-amino-benzothiazole-6-sulfonyl)-isobutyl-amino]-1-benzyl-2-hydroxypropyl}-2-(4-aminomethyl-2,6-dimethyl-phenoxy)-acetamide] had a CC50 at 5 days of 63100 nM. The EC50 with HIV-1 strain LAI (setting [2]) is 7.08 nM. Also, in the data set with mutant HIV strain B, the “fold resistance Strain B” value was found to be 0.9 and the EC50 was 6.61 nM. In the data set on mutant HIV strain E, the “fold resistance Strain E” value amounted to 1.1 and the EC50 is 7.59 nM. In addition, in the data set on mutant HIV strain C, the “fold resistance Strain C” value is on record as 1.7 and the EC50 is 12.3 nM. In the data set on mutant HIV strain F, the “fold resistance Strain F” value is 22.4 and the EC50 is 158 nM. In the data set on mutant HIV strain D, the “fold resistance Strain D” value is recorded as 3.3 and the EC50 was 23.4 nM. In the data set on mutant HIV strain A, the “fold resistance Strain A” value was 4.5 and the EC50 is 31.6 nM.

For `CC(C)CN(C[C@@H](O)[C@H](Cc1ccccc1)NC(=O)OCc1ccccc1)S(=O)(=O)c1ccc2nc(N)sc2c1` [Compound 7, {(1S,2R)-3-[(2-amino-benzothiazole-6-sulfonyl)-isobutyl-amino]-1-benzyl-2-hydroxypropyl}-carbamic acid benzyl ester], in data set [1], the midpoint of cytotoxicity, the CC50 at 5 days, lay at 46800 nM. For the same compound, in the data set on HIV-1 strain LAI (setting [2]), the EC50 was 5.89 nM. In the data set with mutant HIV strain B, the “fold resistance Strain B” value is reported as 5.0 and the EC50 was 29.5 nM. Moreover, in the data set on mutant HIV strain E, the “fold resistance Strain E” value turned out to be 7.4 and the EC50 is 43.7 nM. In addition, in the data set with mutant HIV strain C, the “fold resistance Strain C” value is listed as 5.5 and the EC50 was 32.4 nM. Also, in the data set on mutant HIV strain F, the “fold resistance Strain F” value is listed as 131.8 and the EC50 was 776 nM. In addition, in the data set on mutant HIV strain D, the “fold resistance Strain D” value is 20.0 and the EC50 is 117 nM. Also, in the data set on mutant HIV strain A, the “fold resistance Strain A” value came to 72.4 and the EC50 is 427 nM.
